From US20030133918A1, “Methods for ex vivo propagation of somatic stem cells” (priority 2001, published 2003)

Legend:
Xs-D lines = assay: Albumin induction in adherent culture under conditions of quiescence; assay type: cell-based, rat; details: added to standard quiescence-induction protocol (confluency, 1% serum)
Text: In vivo, cell differentiation in somatic tissues has two important cell kinetics features. First, it occurs after a fixed number of cell divisions from the stem cell stage; and second, cells undergo a cell kinetics arrest before terminal differentiation occurs (Potten and Morris, 1988). Ideally, we wanted to mimic this process in culture with cells dividing with asymmetric stem cell kinetics. However, there was concern whether in vitro asymmetric divisions would be in appropriate balance with non-dividing cells. So, we decided to augment the growth arrest by growing cells to confluency in either Xs-free or Xs-containing medium and then inducing a total quiescent state by reducing the serum concentration to 1%. Many in vitro cell models have been described that undergo differentiation upon serum reduction.
The most dramatic differentiation result obtained in the adherent culture studies was the induction of albumin expression in Xs-D lines under conditions of quiescence (See example in FIG. 4). […] Three other treatments were added to the standard quiescence-induction protocol to evaluate their effect on albumin induction. These were DMSO to mimic glucocorticoid effects, growth on collagen as a form of extracellular matrix, and glucose-removal as noted above for its differentiation effects on gastrointestinal cell lines. […]

[1] = system: p53-inducible model cells; details: published studies (Sherley, 1991); cited from earlier work
[2] = system: freshly harvested murine bone marrow cells; assay: Bone marrow colony formation in soft agar (fresh bone marrow); assay type: cell-based; details: fresh bone marrow cells; type I, II, III colonies
Method: The following numbers of freshly harvested murine bone marrow cells were plated in soft agar in replicates of 6 in 6-well plates: 1×10^5, 5×10^5, or 1×10^6. After 1-3 weeks, type I, II, and III colonies (see FIG. 2 for examples) were enumerated by phase microscopy.
Because of the difficulties anticipated in cloning Xs-dependent cells from heterogenous long-term bone marrow cultures, we decided to adopt a soft agar culture strategy. It is well known that hematopoietic progenitor cells will form colonies when grown in semi-solid medium (Dexter et al., 1984). […] In many bone marrow cell studies, conditions are selected to induce bone marrow cell differentiation. Methyl-cellulose or soft agar supplemented with lineage-promoting growth factors are widely used experimental systems (Dexter et al., 1984). For ideal SACK, we wished to minimize stimuli for differentiation. Therefore, we used agar developed in routine horse serum-supplemented long-term culture medium, without any additional growth factor source, as the gel medium for our studies. We followed procedures developed for detecting anchorage-independent growth of transformed tumor cells.
Given their associated HSC activity, LT-CFCs are predicted to divide with asymmetric cell kinetics. We evaluated whether Xs would increase the frequency of LT-CFC type I colonies in soft agar. Freshly prepared bone marrow cells were plated in soft agar developed in either control medium or medium containing 1 mM or 3 mM Xs.

| SMILES | Effect on degree/induction of albumin expression (Xs-D lines) | Effectiveness as SACK agent compared with Xs [1] | Effect on frequency of colony types in soft agar [2] |
| --- | --- | --- | --- |
| C[S+](C)[O-] [DMSO] | no noticeable effect | – | – |
| O=c1[nH]cnc2nc[nH]c12 [Hx, hypoxanthine] | – | not as effective a SACK agent as Xs | increased the frequency of type II and III colonies at the expense of type I colonies |
